# Laboratory results from PubChem BioAssay (NCI).
#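 Cultured in 96-well plates, cells were exposed to test compound for 48 hours across five concentrations. Here, GI50 denotes the concentration required for 50% inhibition of growth. TGI marks complete inhibition of growth.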
# Legend:
# Experiment in all cases: DTP human tumour cell line panel, 48 h
# [1] = test system: NCI-H23 lung
# [2] = test system: RXF 393 renal
# [3] = test system: NCI-H522 lung
# [4] = test system: SR leukemia
# [5] = test system: NCI/ADR-RES ovarian
# [6] = test system: HCC-2998 colon
# [7] = test system: OVCAR-8 ovarian
# [8] = test system: U251 CNS
# [9] = test system: SNB-19 CNS
# [10] = test system: DU-145 prostate
# [11] = test system: MDA-MB-231 breast
# [12] = test system: NCI-H460 lung
# [13] = test system: SW-620 colon
# [14] = test system: SK-OV-3 ovarian
# [15] = test system: SK-MEL-2 melanoma
# [16] = test system: UACC-257 melanoma
SMILES,TGI [1] [µM],TGI [2] [µM],TGI [3] [µM],TGI [4] [µM],TGI [5] [µM],TGI [6] [µM],TGI [7] [µM],TGI [8] [µM],TGI [9] [µM],TGI [10] [µM],TGI [11] [µM],TGI [12] [µM],TGI [13] [µM],TGI [14] [µM],TGI [15] [µM],TGI [16] [µM],GI50 [5] [µM],GI50 [7] [µM]
CCCCCCCCCCCCCCCCP(=O)(O)OCC(N)C(=O)O (stereo not drawn),> 100,75.1,42.8,91.3,> 100,> 100,> 100,> 100,44.8,> 100,82.7,64.9,> 100,> 100,78.7,> 100,–,–
O=C1CSC(c2ccccc2)N1c1nc2cc3sc(N4C(=O)CSC4c4ccccc4)nc3cc2s1 (stereo not drawn),> 100,> 100,> 100,> 100,> 100,> 100,> 100,> 100,> 100,> 100,> 100,> 100,> 100,> 100,> 100,> 100,–,–
CC(NC(=O)OCc1ccccc1)NC(=O)OC(C)(C)C (stereo not drawn),> 100,84.3,> 100,> 100,> 100,> 100,> 100,> 100,> 100,> 100,> 100,> 100,> 100,> 100,> 100,> 100,–,–
CC1=NN(c2cccc(S(=O)(=O)O)c2)C2(C1)C(Cl)C(=O)N2c1nc2ccccc2s1 (stereo not drawn),13.5,22.8,3.99,17.4,26.8,28.5,19.1,16.3,27,25.2,23.1,26.3,21.1,24.2,15.4,28.3,–,–
CC(=O)OCC1OC(NC(=S)Nn2c(=O)[nH]c3ccccc3c2=O)C(OC(C)=O)C(OC(C)=O)C1OC(C)=O (stereo not drawn),> 100,> 100,> 100,> 100,> 100,> 100,> 100,> 100,> 100,> 100,> 100,> 100,> 100,> 100,> 100,> 100,–,–
CC(C)C[C@H]1[C@@H](OCc2ccccc2)COS(=O)(=O)N1[C@H](C)c1ccccc1,> 100,> 100,> 100,> 83.7,> 100,> 100,> 100,> 67.7,> 100,> 100,> 100,> 100,> 100,> 100,> 100,> 100,–,–
COc1ccc(CNc2ccn(C3OC(CO)C(O)C3O)c(=O)n2)cc1 (stereo not drawn),> 100,> 100,> 100,> 100,> 100,> 100,> 100,> 100,> 100,> 100,> 100,> 100,> 100,> 100,> 100,> 100,–,–
C/C(Cl)=N/OC(=O)Nc1ccc(F)c([N+](=O)[O-])c1,48.5,25.4,4.27,30.7,> 100,> 100,31.7,41.9,37.3,33,37.4,> 100,25.6,45,32.2,53.2,–,–
O=C(CC(O)(C(F)(F)F)C(F)(F)F)C(c1ccccc1)C(O)(C(F)(F)F)C(F)(F)F (stereo not drawn),> 100,25.2,> 100,> 100,> 100,> 100,> 100,> 100,> 100,> 100,> 100,> 100,> 100,88.8,> 100,> 100,–,–
Cn1c(-c2cccs2)cc(-c2cccs2)c1-c1cccs1,> 100,> 100,> 93.5,> 100,> 100,> 100,> 100,> 100,> 100,> 100,> 100,> 100,> 100,> 100,> 100,> 100,–,–
CC1=NN(c2ccccc2)C2(C1)C(Cl)C(=O)N2c1nc2ccccc2s1 (stereo not drawn),77.6,97.7,58.9,80,68.5,> 100,> 100,> 100,> 100,> 100,89.2,> 100,> 100,> 100,78.1,> 100,–,–
CCOC(=O)CC[C@H](N)C(=O)N[C@@H](Cc1ccc(N(CCCl)CCCl)cc1)C(=O)OCC,1.35,2.14,2.54,> 42.2,21.1,2.59,1.99,7.39,18.1,5.56,4.41,2.48,5.87,4.99,5.28,5.09,3.7,0.564
Cc1sc2nc(N(C)C)oc(=O)c2c1C,> 100,> 100,> 100,> 100,> 100,> 100,> 100,> 100,> 100,> 100,> 100,> 100,> 100,> 100,> 100,> 100,–,–
CC(=O)Nc1ccc(-c2nc3ccccc3s2)cc1Br,> 97.3,66,> 100,> 100,> 100,> 100,> 93.7,> 100,> 93.4,> 91.4,> 89,> 100,> 100,75,> 100,> 100,–,–
C=CCN1C(=O)/C(=C/c2ccc(Cl)cc2)N=C1SC/C=C/C,> 100,55.3,> 100,46.7,> 100,> 100,> 100,84.8,> 100,> 100,> 100,> 100,> 100,> 100,68.2,> 100,–,–
O=C(CSc1ncccn1)N/N=C/c1ccccc1OCc1ccccc1,> 100,55.6,79.2,29.5,> 100,95.1,> 100,81.7,> 100,96.7,95.3,94.9,> 100,> 100,47.6,53.5,–,–
C[N+]12CCCCC1C(COc1cccc3cccnc13)CCC2 (stereo not drawn),> 100,> 100,> 100,> 100,> 100,> 100,> 100,> 100,> 100,> 100,> 100,> 100,> 100,> 100,> 100,> 100,–,–
CC(C)OC(=O)c1ccc(NCC2=CC(=O)C=CC2=O)cc1,29,26.2,3.27,8.37,30.7,38.2,29.7,31.3,> 100,35.8,25,> 100,26.5,> 100,31.5,27.2,–,–
CCCN(CCc1ccc(-c2ccccc2)cc1)CCc1ccc2n[nH]nc2c1,25.8,33.1,25.9,17.9,47,19.7,36.3,37.6,26.8,23.9,28.1,22.1,36.3,28.5,33.4,17.1,–,–
CN1CCC23c4c5ccc(Oc6nnnn6-c6ccccc6)c4OC2c2[nH]c4ccccc4c2CC3(O)C1C5 (stereo not drawn),33.7,5.67,4.01,3.72,19.7,3.3,9.6,3.65,22.4,19.6,4.16,3.66,6.14,25.4,3.28,3.32,–,–
O=C1c2ccccc2-c2nnc(-c3ccc([N+](=O)[O-])cc3)cc21,> 10,> 10,> 10,> 10,> 10,> 10,> 10,> 10,> 10,> 10,> 10,> 10,> 10,> 10,> 10,> 10,–,–
